Values quoted from earlier work in US5484911A, “Nucleoside 5'-diphosphate conjugates of ether lipids” (Health Research, Inc., priority 1993, dated 1996).

Tests used:
[1] = mouse, in vivo; cited from earlier work
[2] = system: rat mammary carcinoma SMT-2A; settings: alone and in combination with VP-16; cited from earlier work
[3] = system: human colorectal cancer xenografts and PSN-1 human pancreatic tumor; settings: mouse, in vivo; cited from earlier work
[4] = system: M5076 sarcoma and Lewis lung carcinoma; settings: mouse, in vivo; cited from earlier work
[5] = system: colon 26 carcinoma, M5076 sarcoma, Lewis lung carcinoma, and C-1300 neuroblastoma; settings: mouse, in vivo; cited from earlier work
[6] = system: myelomonocytic WEHI-3B leukemia; settings: mouse, in vivo; cited from earlier work
L1210 leukemic cells = settings: cited from earlier work
L1210 and P388 leukemia = settings: mouse, in vivo; cited from earlier work
herpes simplex = settings: cited from earlier work
respiratory syncytial = settings: cited from earlier work
[7] = system: biosynthesis of phosphatidylinositol, phosphatidylglycerol or diphosphatidylglycerol; settings: rat liver subcellular fractions; release of nucleoside 5'-monophosphates; cited from earlier work

Question: With `CCCCCCCCCCCCCCCCCCSCC(COP(=O)(O)OP(=O)(O)OC[C@H]1O[C@@H](n2ccc(N)nc2=O)[C@@H](O)[C@@H]1O)OC(=O)CCCCCCCCCCCCCCC` (mixture of isomers) [Cytoros] as the compound, how does the “plasma ara-C concentration and intracellular retention of ara-CTP compared to ara-C” value [1] read?
Answer: Its value is “more prolonged plasma ara-C concentration and intracellular retention of ara-CTP”.

Question: What about the “primary and lymph node metastasis” value [2] of the same compound?
Answer: The value was “markedly retarded both primary and lymph node metastasis”.

Question: What about the antitumor activity [3] of the same compound?
Answer: Its antitumor activity is “strong antitumor activity”.

Question: And the antimetastatic activity [4]?
Answer: Its antimetastatic activity is “displayed antimetastic activity”.

Question: And the therapeutic activity [5]?
Answer: Its therapeutic activity is “rather broad spectrum of therapeutic activity”.

Question: What about the “efficacy compared with ara-CDP-L-dipalmitin” value [6] of the same compound?
Answer: The value was “considerably higher efficacy than ara-CDP-L-dipalmitin”.

Question: And the “cytotoxicity to L1210 leukemic cells compared to normal mouse bone marrow cells” value (L1210 leukemic cells)?
Answer: The value was “selective cytotoxicity to L1210 leukemic cells”.

Question: And the “effectiveness among ara-C conjugates tested” value (L1210 and P388 leukemia)?
Answer: Its value is “the most effective of those tested”.

Question: Which “herpes simplex viral replication” value (herpes simplex) does the source give for `CCCCCCCCCCCCCCCCCCCCCCO` [Example 1-Docosanol, 1-Docosanol] here?
Answer: Its value is “inhibits herpes simplex and respiratory syncytial viral replication”.

Question: What about the “respiratory syncytial viral replication” value (respiratory syncytial) of the same compound?
Answer: The value was “inhibits herpes simplex and respiratory syncytial viral replication”.

Question: With AZT diphosphate diglyceride [AZTDP-DG] as the compound, how does the “substitution for CDP-DG in phospholipid biosynthesis” value [7] read?
Answer: Its value is “can substitute to varying extents for CDP-DG”.
